In the supplement of paper PMC13380429:

Experiments:
Conditions in all cases: 72 h
U2OS [1] = test: relative viability EC50 (midpoint between 100% and the lowest measured viability); higher = less toxic
Calu-3 [2] = test: as above
HepG2 [3] = test: as above
Caco-2 [4] = test: as above
U2OS [5] = test: drug sensitivity score (DSS) for viability; higher = more toxic; extreme values may be limits of the assay
Calu-3 [6] = test: as above
HepG2 [7] = test: as above
Caco-2 [8] = test: as above
U2OS [9] = test: cell viability relative to DMSO; higher = less toxic
Calu-3 [10] = test: as above
HepG2 [11] = test: as above
Caco-2 [12] = test: as above
Vero E6 [13] = test: relative viability EC50 (midpoint between 100% and the lowest measured viability); higher = less toxic
Vero E6 [14] = test: drug sensitivity score (DSS) for viability; higher = more toxic; extreme values may be limits of the assay
Vero E6 [15] = test: cell viability relative to DMSO; higher = less toxic

| Structure (SMILES) | relative viability EC50 (U2OS [1]) | relative viability EC50 (Calu-3 [2]) | relative viability EC50 (HepG2 [3]) | relative viability EC50 (Caco-2 [4]) | drug sensitivity score (U2OS [5]) | drug sensitivity score (Calu-3 [6]) | drug sensitivity score (HepG2 [7]) | drug sensitivity score (Caco-2 [8]) | cell viability (U2OS [9]; 1 nM) | cell viability (U2OS [9]; 10 nM) | cell viability (U2OS [9]; 100 nM) | cell viability (U2OS [9]; 1000 nM) | cell viability (U2OS [9]; 10000 nM) | cell viability (Calu-3 [10]; 1 nM) | cell viability (Calu-3 [10]; 10 nM) | cell viability (Calu-3 [10]; 100 nM) | cell viability (Calu-3 [10]; 1000 nM) | cell viability (Calu-3 [10]; 10000 nM) | cell viability (HepG2 [11]; 1 nM) | cell viability (HepG2 [11]; 10 nM) | cell viability (HepG2 [11]; 100 nM) | cell viability (HepG2 [11]; 1000 nM) | cell viability (HepG2 [11]; 10000 nM) | cell viability (Caco-2 [12]; 1 nM) | cell viability (Caco-2 [12]; 10 nM) | cell viability (Caco-2 [12]; 100 nM) | cell viability (Caco-2 [12]; 1000 nM) | cell viability (Caco-2 [12]; 10000 nM) | relative viability EC50 (Vero E6 [13]) | drug sensitivity score (Vero E6 [14]) | cell viability (Vero E6 [15]; 1 nM) | cell viability (Vero E6 [15]; 10 nM) | cell viability (Vero E6 [15]; 100 nM) | cell viability (Vero E6 [15]; 1000 nM) | cell viability (Vero E6 [15]; 10000 nM) |
| --- | --- | --- | --- | --- | --- | --- | --- | --- | --- | --- | --- | --- | --- | --- | --- | --- | --- | --- | --- | --- | --- | --- | --- | --- | --- | --- | --- | --- | --- | --- | --- | --- | --- | --- | --- |
| NC(=O)CN1CC(c2ccccc2)CC1=O (centres undefined) [phenylpiracetam] | > 10 µM | > 10 µM | > 10 µM | > 10 µM | 0 | 0 | 0 | 0 | 99.3% | 102% | 98.1% | 102% | 98.1% | 103% | 97.3% | 99.5% | 98.5% | 91.7% | 112% | 107% | 104% | 94% | 104% | 104% | 103% | 93.1% | 102% | 91.8% | – | – | – | – | – | – | – |
| C=C1CC/C=C(\C)CC[C@@H]2[C@@H]1CC2(C)C [g-caryophyllene] | > 10 µM | – | > 10 µM | > 10 µM | 0 | – | 0 | 0.2 | 92.8% | 101% | 95.3% | 99.9% | 99% | – | – | – | – | – | 105% | 95.5% | 113% | 104% | 94.9% | 109% | 112% | 97.3% | 121% | 80.6% | > 10 µM | 0 | 103% | 89.3% | 104% | 94.8% | 100% |
| COc1ccc(C2=N[C@@H](c3ccc(Cl)cc3)[C@@H](c3ccc(Cl)cc3)N2C(=O)N2CCNC(=O)C2)c(OC(C)C)c1 [nutlin-3] | > 10 µM | > 10 µM | 1.95 µM | > 10 µM | 1.1 | 0 | 5.3 | 0 | 94.7% | 93.6% | 95.3% | 98.7% | 75.2% | 91.6% | 98.1% | 89.7% | 92.4% | 108% | 104% | 115% | 109% | 89.7% | 35% | 94.2% | 92.1% | 92.5% | 97.9% | 89.1% | – | 2.1 | 106% | 98.9% | 94.5% | 97.5% | 63.7% |
| CC(C)N1CCN(c2ccc(C(=O)c3c(-c4ccc(O)cc4)sc4cc(O)ccc34)cc2)CC1 [Y-134] | > 10 µM | – | – | > 10 µM | 0 | 1 | 0.9 | 0.6 | 102% | 98.5% | 99% | 97.1% | 91.8% | 96% | 96.2% | 101% | 102% | 72.4% | 113% | 101% | 94% | 104% | 72.3% | 99.5% | 102% | 100% | 98.7% | 81.4% | > 10 µM | 0.3 | 101% | 104% | 102% | 103% | 82.8% |
| NNCCc1ccccc1 [phenelzine] | > 10 µM | – | > 10 µM | > 10 µM | 0 | – | 0 | 1.4 | 98.4% | 98.7% | 94.6% | 99.8% | 95.1% | – | – | – | – | – | 109% | 92.8% | 84.1% | 120% | 91.4% | 88.4% | 100% | 93.4% | 92.6% | 75.1% | > 10 µM | 0 | 105% | 103% | 101% | 90.3% | 98% |
| CC(C)c1ccc(NC(=O)c2cccs2)c(-c2nc3ccccc3[nH]c2=O)c1 [ML281] | > 10 µM | – | > 10 µM | > 10 µM | 0 | – | 0 | 0 | 111% | 105% | 101% | 102% | 98.3% | – | – | – | – | – | 103% | 106% | 105% | 95.7% | 102% | 102% | 102% | 96.5% | 102% | 93.5% | > 10 µM | 0 | 96.3% | 101% | 97% | 95.5% | 96.1% |
